Experimental findings from patent US8802597B2, “Herbicidal pyrimidines” (E I du Pont de Nemours and Company, priority 2003, dated 2014) are described below.

Structures are written as SMILES. Read-outs that look alike come from different tables or passages of the source.

The test system of series [1] is yellow nutsedge (Cyperus esculentus). As to the kind of experiment: Test C pre/postemergence. In kind it is in vivo. As to conditions: Cyperus; for pest or weed control at 16 g/ha: 16 g ai/ha; for pest or weed control at 31 g/ha: 31 g ai/ha; for pest or weed control at 62 g/ha: 62 g ai/ha; for pest or weed control at 125 g/ha: 125 g ai/ha; for pest or weed control at 8 g/ha: 8 g ai/ha; for pest or weed control at 250 g/ha: 250 g ai/ha; for pest or weed control at 500 g/ha: 500 g ai/ha. The method in brief:
(§1)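 Applications: preemergence onto seeded soil and postemergence onto 1- to 4-leaf seedlings, compound carried in non-phytotoxic solvent plus surfactant. Kept in greenhouse 12 to 14 days. Scored visually relative to untreated controls, 0 (no effect) to 100 (complete control).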

The subject of a further series is soybean (Glycine max). As to the kind of experiment: Test C pre/postemergence. The format is in vivo. As to conditions: Glycine max; for plant injury at 16 g/ha: 16 g ai/ha; for plant injury at 31 g/ha: 31 g ai/ha; for plant injury at 62 g/ha: 62 g ai/ha; for plant injury at 125 g/ha: 125 g ai/ha; for plant injury at 8 g/ha: 8 g ai/ha; for plant injury at 250 g/ha: 250 g ai/ha; for plant injury at 500 g/ha: 500 g ai/ha. In short, it runs like this:
as §1

For series [2], the system named is crabgrass (Digitaria sanguinalis). Description: Test C pre/postemergence. In kind it is in vivo. As to conditions: Digitaria sanguinalis; for pest or weed control at 16 g/ha: 16 g ai/ha; for pest or weed control at 31 g/ha: 31 g ai/ha; for pest or weed control at 62 g/ha: 62 g ai/ha; for pest or weed control at 125 g/ha: 125 g ai/ha; for pest or weed control at 8 g/ha: 8 g ai/ha; for pest or weed control at 250 g/ha: 250 g ai/ha; for pest or weed control at 500 g/ha: 500 g ai/ha. The method in brief: as §1

Setting [3] is: post-emergence, Postemergence, read-out: Plant response rating (scale of 0 to 100), Nutsedge, Yellow.
[4] abbreviates: post-emergence, Postemergence, scale 0 to 100 (0 no effect, 100 complete control), read-out: Nutsedge, Yellow plant response rating.
The mark [5] stands for this setting: post-emergence, Postemergence, read-out: Plant response rating (scale of 0 to 100), Soybean.
[6] abbreviates: post-emergence, Postemergence, scale 0 to 100 (0 no effect, 100 complete control), read-out: Soybean plant response rating.
Setting [7] is: post-emergence, Postemergence, read-out: Plant response rating (scale of 0 to 100), Crabgrass.
Where [8] appears, read: post-emergence, Postemergence, scale 0 to 100 (0 no effect, 100 complete control), read-out: Crabgrass plant response rating.
[9] abbreviates: post-emergence, Postemergence, scale 0 to 100, read-out: Plant response rating, Nutsedge, Yellow.
[10] abbreviates: pre-emergence, Preemergence, scale 0 to 100, 0 no effect, 100 complete control, read-out: Plant response rating, Nutsedge, Yellow.
The mark [11] stands for this setting: post-emergence, Postemergence, scale 0 to 100, read-out: Plant response rating, Soybean.
Where [12] appears, read: pre-emergence, Preemergence, scale 0 to 100, 0 no effect, 100 complete control, read-out: Plant response rating, Soybean.
Setting [13] is: post-emergence, Postemergence, scale 0 to 100, read-out: Plant response rating, Crabgrass.
[14] abbreviates: pre-emergence, Preemergence, scale 0 to 100, 0 no effect, 100 complete control, read-out: Plant response rating, Crabgrass.
[15] abbreviates: pre-emergence, Preemergence, scale 0 to 100, read-out: Plant response rating, Nutsedge, Yellow.
Setting [16] is: pre-emergence, Preemergence, scale 0 to 100, read-out: Plant response rating, Soybean.
[17] abbreviates: pre-emergence, Preemergence, scale 0 to 100, read-out: Plant response rating, Crabgrass.

Regarding `CCOC(=O)c1nc(-c2ccc(Br)cc2)nc(N)c1Cl` [Compound 94, ethyl 6-amino-2-(4-bromophenyl)-5-chloro-4-pyrimidinecarboxylate], the melting point (as a rule, the temperature, or range, at which the solid turns liquid) fell in the range of 136 to 137 °C. For the same compound, in series [1] (setting [3]), the pest or weed control at 16 g/ha came to 55%, the pest or weed control at 31 g/ha was found to be 60% and the pest or weed control at 62 g/ha was 70%. For the same compound, the pest or weed control at 125 g/ha in series [1] (setting [4]) worked out at 75%. In the series with soybean (Glycine max) (setting [5]), the plant injury at 16 g/ha was found to be 100%, the plant injury at 31 g/ha was 100% and the plant injury at 62 g/ha came to 100%. For the same compound, in the series with soybean (Glycine max) (setting [6]), the plant injury at 125 g/ha was 100%. Further, in series [2] (setting [7]), the pest or weed control at 16 g/ha turned out to be 70%, the pest or weed control at 31 g/ha was 80% and the pest or weed control at 62 g/ha is 85%. For the same compound, the pest or weed control at 125 g/ha in series [2] (setting [8]) amounted to 85%.

For `Nc1nc(-c2ccc(Br)cc2)nc(C(=O)O)c1Cl` [Compound 95, 6-amino-2-(4-bromophenyl)-5-chloro-4-pyrimidinecarboxylic acid], the melting point was 157 to 158 °C (dec.). Besides, the pest or weed control at 8 g/ha in series [1] (setting [9]) amounted to 55%. Further, in series [1] (setting [3]), the pest or weed control at 16 g/ha was 60%, the pest or weed control at 31 g/ha is 60% and the pest or weed control at 62 g/ha stood at 75%. The pest or weed control at 8 g/ha in series [1] (pre-emergence, Preemergence, scale 0 to 100 (0 no effect, 100 complete control), read-out: Plant response rating, Nutsedge, Yellow) is 0%. In series [1] (setting [10]), the pest or weed control at 16 g/ha was found to be 40%, the pest or weed control at 31 g/ha is 60% and the pest or weed control at 62 g/ha was found to be 60%. Moreover, the plant injury at 8 g/ha in the series on soybean (Glycine max) (setting [11]) was 100%. Moreover, in the series with soybean (Glycine max) (setting [5]), the plant injury at 16 g/ha turned out to be 100%, the plant injury at 31 g/ha stood at 100% and the plant injury at 62 g/ha worked out at 100%. Also, in the series on soybean (Glycine max) (pre-emergence, Preemergence, scale 0 to 100 (0 no effect, 100 complete control), read-out: Plant response rating, Soybean), the plant injury at 8 g/ha worked out at 90%. Besides, in the series with soybean (Glycine max) (setting [12]), the plant injury at 16 g/ha stood at 90%, the plant injury at 31 g/ha turned out to be 100% and the plant injury at 62 g/ha is 100%. In addition, in series [2] (setting [13]), the pest or weed control at 8 g/ha amounted to 75%. For the same compound, in series [2] (setting [7]), the pest or weed control at 16 g/ha was 75%, the pest or weed control at 31 g/ha stood at 80% and the pest or weed control at 62 g/ha came out at 80%. Besides, the pest or weed control at 8 g/ha in series [2] (pre-emergence, Preemergence, scale 0 to 100 (0 no effect, 100 complete control), read-out: Plant response rating, Crabgrass) turned out to be 0%. In series [2] (setting [14]), the pest or weed control at 16 g/ha was 0%, the pest or weed control at 31 g/ha is 30% and the pest or weed control at 62 g/ha was found to be 35%.

`Nc1nc(C2CC2)nc(C(=O)O)c1Br` [Compound 8] displayed a melting point of 160 to 162 °C. Moreover, in series [1] (setting [4]), the pest or weed control at 62 g/ha came to 0% and the pest or weed control at 125 g/ha was determined as 0%. Further, in series [1] (setting [9]), the pest or weed control at 250 g/ha is 0% and the pest or weed control at 500 g/ha came out at 0%. Moreover, the pest or weed control at 62 g/ha in series [1] (setting [10]) turned out to be 0%. Also, in series [1] (setting [15]), the pest or weed control at 125 g/ha worked out at 0%, the pest or weed control at 250 g/ha stood at 100% and the pest or weed control at 500 g/ha was 100%. For the same compound, in the series with soybean (Glycine max) (setting [6]), the plant injury at 62 g/ha came to 95% and the plant injury at 125 g/ha amounted to 95%. For the same compound, in the series with soybean (Glycine max) (setting [11]), the plant injury at 250 g/ha came out at 100% and the plant injury at 500 g/ha turned out to be 100%. Also, the plant injury at 62 g/ha with soybean (Glycine max) (setting [12]) came out at 100%. Moreover, in the series with soybean (Glycine max) (setting [16]), the plant injury at 125 g/ha worked out at 100%, the plant injury at 250 g/ha is 100% and the plant injury at 500 g/ha is 100%. Also, in series [2] (setting [8]), the pest or weed control at 62 g/ha came out at 60% and the pest or weed control at 125 g/ha amounted to 65%. Further, in series [2] (setting [13]), the pest or weed control at 250 g/ha was 70% and the pest or weed control at 500 g/ha turned out to be 75%. Moreover, the pest or weed control at 62 g/ha in series [2] (setting [14]) stood at 0%. In series [2] (setting [17]), the pest or weed control at 125 g/ha was determined as 0%, the pest or weed control at 250 g/ha worked out at 0% and the pest or weed control at 500 g/ha worked out at 0%.

`COC(=O)c1nc(C2CC2)nc(N)c1I` [Compound 7] displayed a melting point of 145 to 146 °C. In series [1] (setting [4]), the pest or weed control at 62 g/ha turned out to be 0% and the pest or weed control at 125 g/ha is 0%. Further, in series [1] (setting [9]), the pest or weed control at 250 g/ha is 0% and the pest or weed control at 500 g/ha turned out to be 0%. In the series with soybean (Glycine max) (setting [6]), the plant injury at 62 g/ha is 25% and the plant injury at 125 g/ha worked out at 25%. Besides, in the series on soybean (Glycine max) (setting [11]), the plant injury at 250 g/ha worked out at 35% and the plant injury at 500 g/ha stood at 60%. In series [2] (setting [8]), the pest or weed control at 62 g/ha amounted to 0% and the pest or weed control at 125 g/ha turned out to be 0%. In addition, in series [2] (setting [13]), the pest or weed control at 250 g/ha worked out at 5% and the pest or weed control at 500 g/ha was 25%.
